# Measured values from US20260041677A1, “COMPOSITIONS AND METHODS FOR TREATING ADENOID CYSTIC CARCINOMA” (ELEVAR THERAPEUTICS, INC., priority 2022, published 2026).
# Values joined by “and” are separate entries in the source; they are usually repeats but may differ in a detail not shown here. Identical values can stand only once.
# Test system: recurrent or metastatic (R/M) adenoid cystic carcinoma (ACC)
# Test: Phase 2 single-arm study of rivoceranib in R/M ACC: response, DoR, PFS, TTP per RECIST V1.1
# Format: in vivo, human
# Excerpt: Overall design: An ongoing Phase 2, multicenter, open-label, single-arm study was designed to evaluate the efficacy and safety of rivoceranib in patients with recurrent or metastatic (R/M) adenoid cystic carcinoma (ACC) of all anatomic sites of origin. The study was composed of an initial screening phase (up to 28 days), a treatment phase, and a follow-up phase.
# Objectives: Primary objectives were to evaluate safety & tolerability, efficacy by objective response rate (ORR), best overall response (BOR), time to response, duration of response, disease control rate, and duration of disease control. Secondary objectives were to evaluate efficacy as measured by overall survival, progression-free survival and event-free survival. The primary efficacy endpoint was the ORR, defined as the proportion of patients who achieved confirmed complete response (CR) or partial response (PR) per Response Evaluation Criteria in Solid Tumors (RECIST) Version 1.1 (V1.1). The secondary efficacy endpoints were duration of response (DoR) assessed by the investigator and a blinded independent review committee (BIRC), progression-free survival (PFS) assessed at 6 months, 12 months, and 2 years by investigator and BIRC, Time to Progression (TTP) assessed by investigator and BIRC, and overall survival (OS) assessed at 1 and 2 years. Exploratory efficacy endpoints include ORR per CHOI response criteria (based on the journal article, Choi et al., Correlation of computed tomography and positron emission tomography in patients with metastatic gastrointestinal stromal tumor treated at a single institution with imatinib mesylate: proposal of new computed tomography response criteria. J Clin Oncol. 2007; 25(13): 1753-1759) by a blinded independent review […] (BIRC) and disease control rate (DCR) per RECIST V1.1 by Investigator and BIRC. Except for CHOI response criteria, all response endpoints were assessed per RECIST V1.1 by Investigator and BIRC.
# Patients: The study was conducted at 11 study sites in the USA and South Korea. A total of 80 patients were enrolled and received at least 1 dose of study drug (rivoceranib). Fifty-three patients were enrolled in the USA and 27 patients were enrolled in Korea. Eligible patients were 18 years or older and were required to have histologically or cytologically confirmed R/M ACC of any anatomic location not amenable to curative surgery or radiotherapy. Due to the indolent nature of the disease, patients were required to have evidence of disease progression by RECIST V1.1 within the 6 months prior to study entry, evidenced by: ≥20% increase in radiologically or clinically measurable lesions or appearance of new lesions. Patients were required to have at least 1 measurable target lesion by RECIST V1.1. There were no restrictions on prior systemic therapies. Patients were permitted to have prior VEGFR TKI exposure if dosage was discontinued within 5 half-lives prior to rivoceranib treatment. The patients were permitted if they have an Eastern Cooperative Oncology Group (ECOG) performance status of 0 or 1. Patients with treated central nervous system metastases were permitted if they were stable for four weeks prior to study treatment. Eligible patients had documented primary diagnosis of solid tumor cancer of ACC for which anti-VEGFR-2 targeted therapy could be applicable. The majority of patients had primary tumors in the major (33.8%) or minor (58.8%) salivary glands; 6 patients (7.5%) had primary tumors in other locations: lung, breast, trachea, Cowper's gland, intracranial temporal lobe and lymph node. Median time from original ACC diagnosis was 69.62 months. The majority of patients (92.5%) had metastatic disease.
# Dose determination: Enrolled patients initiated treatment with rivoceranib 700 mg daily (QD). Up to 3 levels of dose reduction for toxicity were permitted: 500 mg QD, 300 mg QD and 200 mg QD. Patients received treatment until disease progression, unacceptable toxicity, death or withdrawal of consent to treatment. […]
# [1] = RECIST V1.1, BIRC, 700 mg QD start
# [2] = RECIST V1.1, BIRC, Total N = 73, 700 mg QD start
# [3] = RECIST V1.1, BIRC, Total N = 73, Kaplan-Meier, 700 mg QD start
# [4] = RECIST V1.1, BIRC, VEGFRi-naïve N = 60, 700 mg QD start
# [5] = RECIST V1.1, BIRC, VEGFRi-naïve N = 60, Kaplan-Meier, 700 mg QD start
# [6] = RECIST V1.1, BIRC, VEGFRi-treated N = 13, 700 mg QD start
# [7] = RECIST V1.1, BIRC, VEGFRi-treated N = 13, Kaplan-Meier, 700 mg QD start
# [8] = RECIST V1.1, Investigator, 700 mg QD start
# [9] = RECIST V1.1, Investigator, Systemic therapy-naïve N = 29, 700 mg QD start
smiles,measurement,setting,value
"N#CC1(c2ccc(NC(=O)c3cccnc3NCc3ccncc3)cc2)CCCC1 [Rivoceranib, N-[4-(1-cyanocyclopentyl)phenyl]-2-{[(pyridin-4-yl)methyl]amino}pyridine-3-carboxamide]",remaining (non-ORR) patients who had a tumor size reduction,700 mg QD start,about 85%
same,median PFS,"Kaplan-Meier, patients previously treated with systemic therapy, 700 mg QD start",8.9 months
same,median PFS,"Kaplan-Meier, patients without any prior systemic therapy, 700 mg QD start",13.7 months
same,ORR based on patients assessed as responders by either Investigator or BIRC,"RECIST V1.1, 15 out of 73 patients, 700 mg QD start",20.5%
same,estimated TTP rate at 6 months,[1],80.7%
same,estimated TTP rate at 9 months,[1],57.3%
same,estimated TTP rate at 12 months,[1],41%
same,BOR: Complete Response,[2],0%
same,BOR: Not Evaluable,[2],1 (1.4) %
same,BOR: Partial Response,[2],7 (9.6) %
same,BOR: Progressive Disease,[2],5.5% and 4 (5.5) %
same,BOR: Stable Disease,[2],61 (83.6) %
same,"DCR (disease control rate, CR, PR or SD ≥3 months)",[2],65.8% and 64.4% and 48 (65.8) %
same,Median TTP (95% CI),[2],9.3 (8.5-13.6) months
same,ORR (objective response rate),[2],9.6% and 7 (9.6) %
same,"PFS landmark 6-months, % (95% CI)",[2],80.8 (68.5-88.6) %
same,"PFS landmark 12-months, % (95% CI)",[2],38.2 (25.0-51.3) %
same,DoR 25th percentile,[3],5.5 months
same,DoR 75th percentile,[3],8.3 months
same,DoR Median (95% CI),[3],"7.2 months and 7.2 (3.5, 8.4) months"
same,Median PFS (95% CI),[3],"9.2 months and 9.2 (8.0, 12.9) months"
same,BOR: Complete Response,[4],0%
same,BOR: Not Evaluable,[4],1 (1.7) %
same,BOR: Partial Response,[4],5 (8.3) %
same,BOR: Progressive Disease,[4],3 (5.0) %
same,BOR: Stable Disease,[4],51 (85) %
same,"DCR (disease control rate, CR, PR or SD ≥3 months)",[4],39 (65.0) %
same,Median PFS (95% CI),[4],9.3 (8.0-13.7) months
same,Median TTP (95% CI),[4],10.8 (8.5-13.8) months
same,ORR (objective response rate),[4],8.5% and 5 (8.3) %
same,"PFS landmark 6-months, % (95% CI)",[4],80.3 (66.3-88.9) %
same,"PFS landmark 12-months, % (95% CI)",[4],40.4 (25.6-54.6) %
same,DoR 25th percentile,[5],5.4 months
same,DoR 75th percentile,[5],8.3 months
same,BOR: Complete Response,[6],0%
same,BOR: Not Evaluable,[6],0%
same,BOR: Partial Response,[6],2 (15.4) %
same,BOR: Progressive Disease,[6],1 (7.7) %
same,BOR: Stable Disease,[6],10 (76.9) %
same,"DCR (disease control rate, CR, PR or SD ≥3 months)",[6],9 (69.2) %
same,Median PFS (95% CI),[6],8.9 (5.3-12.9) months
same,Median TTP (95% CI),[6],8.9 (5.3-12.9) months
same,"PFS landmark 6-months, % (95% CI)",[6],83.1 (47.2-95.5) %
same,"PFS landmark 12-months, % (95% CI)",[6],26.0 (4.3-56.2) %
same,DoR 25th percentile,[7],5.5 months
same,DoR 75th percentile,[7],7.1 months
same,DoR Median (95% CI),[7],"6.3 (5.5, 7.1) months"
same,estimated PFS rate at 9 months,"RECIST V1.1, BIRC, efficacy evaluable, 700 mg QD start",53.5%
same,estimated TTP rate at 6 months,[8],76.2%
same,estimated TTP rate at 9 months,[8],57.0%
same,estimated TTP rate at 12 months,[8],43.7%
same,Median time to response,"RECIST V1.1, Investigator, 11 responders",57.0 days
same,BOR: Complete Response,[9],0%
same,BOR: Not Evaluable,[9],0%
same,BOR: Partial Response,[9],(20.7) %
same,BOR: Progressive Disease,[9],(10.3) %
same,BOR: Stable Disease,[9],(69.0) %
